The data set is described as follows: Tolerability of KDE incorporated in food, bodyweight and food intake (pilot work, Experiment 4b). Format: in vivo, VM/Dk mice. The text has this: Food Intake and Ketone Diester Administration: Standard diet dry food (2018 Teklad Global 18% Protein Rodent Diet, Harlan) was mixed with deionized water (1 g dry food/mL deionized water) into a consistent paste and placed on a 100×15 mm dish. Food intake was tracked daily at the same time (7:00-9:00) and replaced every other day to ensure fresh food. Due to sinusoidal/oscillatory changes in food intake observed every other day (2-day pattern), a 4-day (2×2-day pattern) average was taken at EOL and baseline to calculate changes in anorexic symptoms. KDE was chemically synthesized with physical properties, preparation, and analysis described previously. For evaluation of KDE effect on anorexia, food intake was tracked daily at the same time (7:00-9:00). […] Consequently, upon VM-M3 inoculation, KDE+VM-M3 received ad libitum 0% KDE/weight day 1, 5% KDE day 2, 10% KDE day 3, 15% KDE day 4, 20% KDE day 5, 25% KDE day 6, and 30% KDE day 7 through 21 on top of HPSD. VM-M3 and Sham received HPSD ad libitum. As pilot work indicated potential water evaporation in food paste in ventilated cages, dehydration standard curve was calculated across various volumes of plated food (5, 10, 25.0, 50.0, 100 g/food) with and without KDE over a two-day period. Standard curve equation [water evaporated=0.2472 (original grams of water)+1.364] was used to correct for amount of dehydration prior to calculating caloric intake. For LPS experiments, 1×4 mL/kg KDE gavage or 1×4 mL/kg water gavage were administered for KDE+LPS and LPS-only, respectively. […]
To determine whether KDE could alter systemic metabolism, blood metabolites were measured at baseline following a standard diet and after a 4-day transition to a standard diet supplemented with 20% KDE, 25% KDE, or 30% KDE. […] To determine whether KDE could alter metabolism in CACS, blood ketones, glucose, and lactate were measured weekly. […] Thus, to determine if KDE altered tumor burden, in vivo bioluminescence imaging was analyzed weekly.

Turning to `CC(=O)CC(=O)OCCC(C)OC(=O)CC(C)=O` (stereo not drawn) [KDE, R/S 1,3-butanediol acetoacetate diester], for the setting “20-30% by weight KDE incorporated in standard diet, pilot work”, the “ad libitum food intake” value is on record as “reductions in ad libitum food intake”. For the setting “30% KDE reached incrementally (5%/day) over 7 days”, the “tolerability as indicated by bodyweight maintenance” value is reported as “well-tolerated”. Moreover, the bodyweight across time result (incremental incorporation 0-30% KDE/weight at 5% KDE/weight/day, highly palatable standard diet) is listed as “did not result in changes in bodyweight across time”.

Values taken from US12648924B2, “Prevention and treatment of effects of aging and age-associated disorders with ketone supplementation” (priority 2020, dated 2026).
